Experimental data published in the supplement of paper PMC10307832.

Assays:
Assay in all cases: relative viability (nuclei count vs DMSO), 5 days (fraction); higher = more cells survive
A-427 = tested on: A-427
Procedure, shortened: (§1)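 Nuclei were stained with Hoechst during a one-step fixation (final 0.05% Triton X-100, 1% formaldehyde, 1 ug/ml Hoechst) carried out 5 days after dosing, then counted on 4× images. The cells, lung cancer lines in 1536-well plates, had been dosed by pin tool the day after seeding with one drug alone or a fixed anchor-drug dose plus five library-drug doses (not always all listed) in √10 steps. Relative viability is the nuclei count in treated wells divided by that in vehicle wells, and each value is the median of duplicate plates.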

CAL-12T = tested on: CAL-12T
Procedure, shortened: as §1

COR-L 105 = tested on: COR-L 105
Procedure, shortened: as §1

EPLC-272H = tested on: EPLC-272H
Procedure, shortened: as §1

HCC-15 = tested on: HCC-15
Procedure, shortened: as §1

HCC-44 = tested on: HCC-44
Procedure, shortened: as §1

LC-2-ad = tested on: LC-2-ad
Procedure, shortened: as §1

LCLC-97TM1 = tested on: LCLC-97TM1
Procedure, shortened: as §1

NCI-H1395 = tested on: NCI-H1395
Procedure, shortened: as §1

NCI-H1734 = tested on: NCI-H1734
Procedure, shortened: as §1

NCI-H1915 = tested on: NCI-H1915
Procedure, shortened: as §1

NCI-H1975 = tested on: NCI-H1975
Procedure, shortened: as §1

NCI-H2023 = tested on: NCI-H2023
Procedure, shortened: as §1

NCI-H2342 = tested on: NCI-H2342
Procedure, shortened: as §1

NCI-H2347 = tested on: NCI-H2347
Procedure, shortened: as §1

NCI-H2405 = tested on: NCI-H2405
Procedure, shortened: as §1

NCI-H520 = tested on: NCI-H520
Procedure, shortened: as §1

NCI-H838 = tested on: NCI-H838
Procedure, shortened: as §1

SW 1573 = tested on: SW 1573
Procedure, shortened: as §1

SW 900 = tested on: SW 900
Procedure, shortened: as §1

UMC-11 = tested on: UMC-11
Procedure, shortened: as §1

Question: What does the source list for CCNC(=O)c1noc(-c2cc(C(C)C)c(O)cc2O)c1-c1ccc(CN2CCOCC2)cc1 [Luminespib] + Cc1cc(Nc2cc(N3CCN(C)CC3)nc(Sc3ccc(NC(=O)C4CC4)cc3)n2)n[nH]1 [Tozasertib] (partner 0.1 µM)?
Answer: relative viability (A-427; first compound 0.002 µM): 0.218; relative viability (A-427; first compound 0.006325 µM): 0.204; relative viability (A-427; first compound 0.02 µM): 0.151; relative viability (A-427; first compound 0.06325 µM): 0.226; relative viability (A-427; first compound 0.2 µM): 0.134; relative viability (CAL-12T; first compound 0.002 µM): 0.361; relative viability (CAL-12T; first compound 0.006325 µM): 0.319; relative viability (CAL-12T; first compound 0.02 µM): 0.211; relative viability (CAL-12T; first compound 0.06325 µM): 0.113; relative viability (CAL-12T; first compound 0.2 µM): 0.107; relative viability (COR-L 105; first compound 0.002 µM): 0.37; relative viability (COR-L 105; first compound 0.006325 µM): 0.385; relative viability (COR-L 105; first compound 0.02 µM): 0.232; relative viability (COR-L 105; first compound 0.06325 µM): 0.465; relative viability (COR-L 105; first compound 0.2 µM): 0.191; relative viability (EPLC-272H; first compound 0.002 µM): 0.282; relative viability (EPLC-272H; first compound 0.006325 µM): 0.296; relative viability (EPLC-272H; first compound 0.06325 µM): 0.399; relative viability (EPLC-272H; first compound 0.2 µM): 0.22; relative viability (HCC-15; first compound 0.002 µM): 0.466; relative viability (HCC-15; first compound 0.006325 µM): 0.441; relative viability (HCC-15; first compound 0.02 µM): 0.444; relative viability (HCC-15; first compound 0.06325 µM): 0.173; relative viability (HCC-15; first compound 0.2 µM): 0.0953; relative viability (HCC-44; first compound 0.002 µM): 1.01; relative viability (HCC-44; first compound 0.006325 µM): 0.766; relative viability (HCC-44; first compound 0.02 µM): 0.99; relative viability (HCC-44; first compound 0.06325 µM): 0.169; relative viability (HCC-44; first compound 0.2 µM): 0.159; relative viability (LC-2-ad; first compound 0.002 µM): 0.482; relative viability (LC-2-ad; first compound 0.006325 µM): 0.493; relative viability (LC-2-ad; first compound 0.02 µM): 0.414; relative viability (LC-2-ad; first compound 0.06325 µM): 0.258; relative viability (LC-2-ad; first compound 0.2 µM): 0.251; relative viability (LCLC-97TM1; first compound 0.002 µM): 0.198; relative viability (LCLC-97TM1; first compound 0.006325 µM): 0.268; relative viability (LCLC-97TM1; first compound 0.02 µM): 0.117; relative viability (LCLC-97TM1; first compound 0.06325 µM): 0.241; relative viability (LCLC-97TM1; first compound 0.2 µM): 0.214; relative viability (NCI-H1395; first compound 0.002 µM): 0.783; relative viability (NCI-H1395; first compound 0.006325 µM): 0.693; relative viability (NCI-H1395; first compound 0.02 µM): 0.676; relative viability (NCI-H1395; first compound 0.06325 µM): 0.386; relative viability (NCI-H1395; first compound 0.2 µM): 0.322; relative viability (NCI-H1734; first compound 0.002 µM): 0.248; relative viability (NCI-H1734; first compound 0.006325 µM): 0.254; relative viability (NCI-H1734; first compound 0.02 µM): 0.252; relative viability (NCI-H1734; first compound 0.06325 µM): 0.143; relative viability (NCI-H1734; first compound 0.2 µM): 0.154; relative viability (NCI-H1915; first compound 0.002 µM): 0.449; relative viability (NCI-H1915; first compound 0.006325 µM): 0.518; relative viability (NCI-H1915; first compound 0.02 µM): 0.377; relative viability (NCI-H1915; first compound 0.06325 µM): 0.364; relative viability (NCI-H1915; first compound 0.2 µM): 0.187; relative viability (NCI-H1975; first compound 0.002 µM): 0.759; relative viability (NCI-H1975; first compound 0.006325 µM): 0.745; relative viability (NCI-H1975; first compound 0.02 µM): 0.603; relative viability (NCI-H1975; first compound 0.06325 µM): 0.1; relative viability (NCI-H1975; first compound 0.2 µM): 0.093; relative viability (NCI-H2023; first compound 0.002 µM): 0.395; relative viability (NCI-H2023; first compound 0.006325 µM): 0.389; relative viability (NCI-H2023; first compound 0.02 µM): 0.343; relative viability (NCI-H2023; first compound 0.06325 µM): 0.0657; relative viability (NCI-H2023; first compound 0.2 µM): 0.0748; relative viability (NCI-H2342; first compound 0.002 µM): 0.578; relative viability (NCI-H2342; first compound 0.006325 µM): 0.576; relative viability (NCI-H2342; first compound 0.02 µM): 0.361; relative viability (NCI-H2342; first compound 0.06325 µM): 0.589; relative viability (NCI-H2342; first compound 0.2 µM): 0.334; relative viability (NCI-H2347; first compound 0.002 µM): 0.592; relative viability (NCI-H2347; first compound 0.006325 µM): 0.407; relative viability (NCI-H2347; first compound 0.02 µM): 0.471; relative viability (NCI-H2347; first compound 0.06325 µM): 0.269; relative viability (NCI-H2347; first compound 0.2 µM): 0.198; relative viability (NCI-H2405; first compound 0.002 µM): 0.812; relative viability (NCI-H2405; first compound 0.006325 µM): 0.575; relative viability (NCI-H2405; first compound 0.02 µM): 0.808; relative viability (NCI-H2405; first compound 0.06325 µM): 0.34; relative viability (NCI-H2405; first compound 0.2 µM): 0.152; relative viability (NCI-H520; first compound 0.002 µM): 0.404; relative viability (NCI-H520; first compound 0.006325 µM): 0.449; relative viability (NCI-H520; first compound 0.02 µM): 0.345; relative viability (NCI-H520; first compound 0.06325 µM): 0.195; relative viability (NCI-H520; first compound 0.2 µM): 0.221; relative viability (NCI-H838; first compound 0.002 µM): 0.272; relative viability (NCI-H838; first compound 0.006325 µM): 0.215; relative viability (NCI-H838; first compound 0.02 µM): 0.308; relative viability (NCI-H838; first compound 0.06325 µM): 0.164; relative viability (NCI-H838; first compound 0.2 µM): 0.123; relative viability (SW 1573; first compound 0.002 µM): 0.199; relative viability (SW 1573; first compound 0.006325 µM): 0.175; relative viability (SW 1573; first compound 0.02 µM): 0.173; relative viability (SW 1573; first compound 0.06325 µM): 0.113; relative viability (SW 1573; first compound 0.2 µM): 0.0892; relative viability (SW 900; first compound 0.002 µM): 0.638; relative viability (SW 900; first compound 0.006325 µM): 0.623; relative viability (SW 900; first compound 0.02 µM): 0.591; relative viability (SW 900; first compound 0.06325 µM): 0.15; relative viability (SW 900; first compound 0.2 µM): 0.117; relative viability (UMC-11; first compound 0.002 µM): 0.211; relative viability (UMC-11; first compound 0.006325 µM): 0.191; relative viability (UMC-11; first compound 0.02 µM): 0.194; relative viability (UMC-11; first compound 0.06325 µM): 0.242; relative viability (UMC-11; first compound 0.2 µM): 0.196
